Reference: patent US20240174649A1, “CULLIN-RING E3 UBIQUITIN LIGASE 4 INHIBITOR COMPOUNDS AND METHODS OF THEIR USE” (ICAHN SCHOOL OF MEDICINE AT MOUNT SINAI, priority 2021, published 2024)

Experiments:
ROC1-CUL1 = ROC1-CUL1 (Homo sapiens (Human), UniProt Q13616); assay: Cullin-32P-Ub elongation assay with ROC1-CUL1; assay type: biochemical; conditions: as much as 150 μM
ROC1-CUL4A CTD [1] = biological target: ROC1-CUL4A CTD (Homo sapiens (Human), UniProt Q13619); assay: Ligand binding by Micro-Scale Thermophoresis (MST); conditions: MST
Protocol: (§1) E3 ligase complex (˜2 nmol) was labeled with fluorescent dye using Monolith NT Protein Labeling Kit Red-NHS (Nanotemper) in the presence of 20 mM MES pH 6.0 and 150 mM NaCl. Excess dye was removed using the included gravity flow column and eluted in storage buffer containing 20 mM Tris-HCl, pH 7.4, 150 mM NaCl, and 10% glycerol. The fluorescent E3 complex (˜0.01-0.06 μM) was mixed with increasing amount of compound in a buffer (20 μl) that contains phosphate-buffered saline, 0.1% TWEEN-20 and 2% prionex. Following incubation at room temperature for 30 min, the reaction mixture loaded into premium coated capillaries and analyzed in the Monolith NT.115 machine (Nanotemper). Thermophoresis was recorded for each sample and binding curve was generated and Kd was calculated using the included software. For reactions where significant ligand specific fluorescence quenching occurred (verified by manufacturer's SDS Denaturation-test protocol), the initial fluorescence quenching data was used directly to calculate the binding curve and Kd.

ROC1-CUL4A CTD [2] = assay: Ligand binding by Micro-Scale Thermophoresis (MST); design: species or system human; conditions: ratio of Kd
Protocol: as §1

[3] = Mouse tolerance/toxicity study
MV4-11 cells = assay: Cell viability assay (CellTiter-Glo); assay type: cell-based; conditions: Homo sapiens; MV4-11, 48 hours
Protocol: The ability of #33-11 to induce apoptosis was measured by Annexin V flow cytometry (FIG. 1A). EC50/EC90 for each cell line are indicated. […] Mouse pancreatic cancer cell lines K8484 and DT8082 were isolated from the KPC mice (Olive et al., “Inhibition of Hedgehog Signaling Enhances Delivery of Chemotherapy in a Mouse Model of Pancreatic Cancer,” Science 324(5933):1457-1461 (2009), which is hereby incorporated by reference in its entirety), the rest (34 in total) are all human cancer cell lines. Washout: MV4-11 cells at 10^5 cells/ml were treated with compound at concentrations as indicated (FIG. 1C). At specified hours post compound treatment, the cells were washed once with fresh complete media without compound and allowed to grow for additional 48 hours followed by viability test as in FIG. 1B.
For cell viability assay, 10,000 cells (per well) were seeded in 96 well plates in 100 microliters of media and incubated overnight. Serial dilutions of compounds tested were then added to wells in triplicate. […] The luminescence of each well was then read using a Synergy multi-mode plate reader (BioTek). For determining relative luminescence, the background (average reading of wells containing only media and CellTiter-Glo reagent, no cells) was first subtracted from the reading of each sample. […] Then EC50 was determined using the four parameter logistics regression standard curve.

[4] = In vitro stability in mouse, rat and human microsomes; assay type: in vitro ADME
Protocol: ADME studies on compounds #33-11 and KH-4-43 for “absorption, distribution, metabolism, and excretion” were carried out at CRO, BioDuro. Kinetic solubility, plasma and microsome stability in rat, mouse and human, as well as Caco-2 Permeability were examined.

ROC1-CUL4A CTD (Homo sapiens (Human), UniProt Q13619), sequence (Q13619 400-759): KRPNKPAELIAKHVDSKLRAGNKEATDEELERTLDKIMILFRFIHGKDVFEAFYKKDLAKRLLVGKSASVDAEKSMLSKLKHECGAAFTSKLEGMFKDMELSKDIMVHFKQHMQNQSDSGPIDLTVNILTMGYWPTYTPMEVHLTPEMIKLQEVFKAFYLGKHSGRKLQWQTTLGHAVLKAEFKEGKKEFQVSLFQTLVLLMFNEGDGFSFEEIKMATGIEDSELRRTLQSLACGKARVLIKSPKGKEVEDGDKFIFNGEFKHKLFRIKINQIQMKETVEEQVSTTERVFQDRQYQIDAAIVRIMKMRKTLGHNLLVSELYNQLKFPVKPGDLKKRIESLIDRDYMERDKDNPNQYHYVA
ROC1-CUL1, sequence (Q13616 whole entry): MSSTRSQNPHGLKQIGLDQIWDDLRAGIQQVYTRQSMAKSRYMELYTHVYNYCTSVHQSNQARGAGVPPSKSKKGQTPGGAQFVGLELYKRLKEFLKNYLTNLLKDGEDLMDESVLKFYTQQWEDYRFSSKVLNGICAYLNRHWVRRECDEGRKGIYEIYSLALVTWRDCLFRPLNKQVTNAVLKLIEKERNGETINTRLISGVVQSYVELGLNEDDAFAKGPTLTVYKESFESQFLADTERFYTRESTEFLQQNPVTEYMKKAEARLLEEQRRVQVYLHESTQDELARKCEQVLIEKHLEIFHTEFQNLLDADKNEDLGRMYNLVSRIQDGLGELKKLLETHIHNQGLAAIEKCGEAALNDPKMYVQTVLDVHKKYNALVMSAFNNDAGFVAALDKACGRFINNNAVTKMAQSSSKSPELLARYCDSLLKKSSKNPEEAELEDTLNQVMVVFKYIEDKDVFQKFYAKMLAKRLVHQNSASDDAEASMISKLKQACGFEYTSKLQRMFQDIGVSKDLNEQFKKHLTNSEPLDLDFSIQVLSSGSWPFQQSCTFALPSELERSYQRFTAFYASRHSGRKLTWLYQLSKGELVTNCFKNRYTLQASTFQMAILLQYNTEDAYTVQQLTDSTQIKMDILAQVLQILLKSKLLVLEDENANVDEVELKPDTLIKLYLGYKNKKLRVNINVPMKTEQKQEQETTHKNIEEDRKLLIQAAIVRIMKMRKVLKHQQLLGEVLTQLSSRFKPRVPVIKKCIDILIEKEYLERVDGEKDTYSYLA
ROC1-CUL1, sequence (P62877 whole entry partner): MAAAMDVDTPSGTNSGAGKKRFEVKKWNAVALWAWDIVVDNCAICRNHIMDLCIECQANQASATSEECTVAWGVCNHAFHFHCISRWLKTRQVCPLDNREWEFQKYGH

| Structure (SMILES) | effect on levels of CUL1-32P-Ub (ROC1-CUL1) | Kd (ROC1-CUL4A CTD [1]) | binding to ROC1-CUL4A CTD more effectively than ROC1-CUL1 CTD (ROC1-CUL4A CTD [2]) | necropsy findings ([3]; 50 mg/kg) | body weight loss ([3]; 50 mg/kg IP daily, 7 days) | EC50 (MV4-11 cells) | half-life [4] |
| --- | --- | --- | --- | --- | --- | --- | --- |
| O=c1c(-c2cnn(-c3ccccc3)c2)c(C(F)(F)F)oc2c(O)c(O)ccc12 [#33-11, 7,8-dihydroxy-3-(1-phenyl-1H-pyrazol-4-yl)-2-(trifluoromethyl)-4H-chromen-4-one] | little effects | 223 nM | ~20 fold | no adverse effects | no significant body weight loss |  |  |
| O=c1c(-c2cnn(-c3ccc(Cl)cc3)c2)c(C(F)(F)F)oc2c(O)c(O)ccc12 [KH-4-43, 3-(1-(4-chlorophenyl)-1H-pyrazol-4-yl)-7,8-dihydroxy-2-(trifluoromethyl)-4H-chromen-4-one] |  |  |  |  |  | 3000 nM | > 5 h |
